# Experimental data from patent publication US10752587B2, “Homobispiperidinyl derivatives as liver X receptor beta agonists, compositions and their use” (Merck Sharp & Dohme Corp., priority 2015, dated 2020).
# Experiments:
# [1] = biological target: T1, glutathione-S-transferase (GST) tagged LXRbeta LBD (ligand binding domain) (Homo sapiens, UniProt P55055); experiment: LanthaScreen TR-FRET Liver X Receptor Coactivator Assay, co-activator recruitment to LXRbeta LBD; format: biochemical; details: for Emax / LXR beta Activity @ max dose (%): efficacy at max dose, in relation to reference dual agonist T0901317; for Emax: read-out: LXR beta Activity @ max dose (%); for EC50: potency (Inflection Point, IP), co-activator recruitment to LXRbeta LBD, in relation to T0901317, read-out: LXR beta IP
# T1 construct: purchased Invitrogen pv4658.pps
# T1 sequence (P55055 222-460 limits assumed): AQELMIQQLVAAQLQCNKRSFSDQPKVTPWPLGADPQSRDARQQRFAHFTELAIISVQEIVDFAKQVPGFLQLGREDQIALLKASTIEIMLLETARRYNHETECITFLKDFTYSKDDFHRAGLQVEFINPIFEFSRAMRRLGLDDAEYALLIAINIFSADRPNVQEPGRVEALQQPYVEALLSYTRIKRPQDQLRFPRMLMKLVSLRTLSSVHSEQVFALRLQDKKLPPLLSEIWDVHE
# Method: (§1) Potency (Inflection Point, IP) and efficacy (Emax) are evaluated via compound-induced co-activator recruitment to glutathione-S-transferase (GST) tagged LXRbeta and LXRalpha LBD (ligand binding domain) proteins in relation to reference dual agonist compound T0901317 (N-(2,2,2-Trifluoroethyl)-N-[4-[2,2,2-trifluoro-1-hydroxy-1-(trifluoromethyl)ethyl] phenyl] benzenesulfonamide) using the LanthaScreen™ TR-FRET Liver X Receptor Coactivator Assays according to manufacturer's instructions (Invitrogen catalog number pv4658.pps and pv4655). While running the LanthaScreen™ TR-FRET Liver X Receptor Coactivator Assay, LXR alpha-LBD or LXR beta-LBD was added to ligand test compounds followed by addition of a mixture of a fluorescein-labelled coactivator peptide and terbium-conjugated anti-GST antibody. After an incubation period at room temperature, TR-FRET (time-resolved fluorescence resonance energy transfer) was measured using a filter-based instrument capable of TR-FRET, e.g. PerkinElmer Envision.
# [2] = biological target: T2, glutathione-S-transferase (GST) tagged LXRalpha LBD (ligand binding domain) (Homo sapiens, UniProt Q13133); experiment: LanthaScreen TR-FRET Liver X Receptor Coactivator Assay, co-activator recruitment to LXRalpha LBD; format: biochemical; details: for Emax / LXR alpha Activity @ max dose (%): efficacy at max dose, in relation to reference dual agonist T0901317; for Emax: read-out: LXR alpha Activity @ max dose (%); for EC50 / LXR alpha IP (nM): potency (Inflection Point, IP), co-activator recruitment to LXRalpha LBD, in relation to T0901317; for EC50: read-out: LXR alpha IP
# T2 construct: purchased Invitrogen pv4655
# T2 sequence (Q13133 209-447 limits assumed): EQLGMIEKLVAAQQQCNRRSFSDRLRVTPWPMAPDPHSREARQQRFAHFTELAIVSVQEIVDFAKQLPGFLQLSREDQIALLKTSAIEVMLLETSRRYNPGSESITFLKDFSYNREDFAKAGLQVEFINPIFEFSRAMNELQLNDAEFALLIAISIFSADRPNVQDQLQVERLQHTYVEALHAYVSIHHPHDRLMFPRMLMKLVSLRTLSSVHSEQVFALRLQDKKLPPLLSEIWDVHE
# Method: as §1
Compound,Emax [1] [%],Emax [2] [%],LXR beta Activity @ max dose (%) [1] [%],LXR alpha Activity @ max dose (%) [2] [%],EC50 [2] [nM],LXR alpha IP (nM) [2],EC50 [1] [nM]
"CN(C)C(=O)c1ccc(N2CCC(CC3CCN(C(=O)[C@](O)(c4ccccc4)C(F)(F)F)CC3)CC2)cc1Cl [Example 2-12, 2-chloro-N,N-dimethyl-4-[4-({1-[(2R)-3,3,3-trifluoro-2-hydroxy-2-phenylpropanoyl]piperidin-4-yl}methyl)piperidin-1-yl]benzamide]",79,25,–,–,–,–,–
"CN(C)C(=O)c1ccc(N2CCC(CC3CCN(C(=O)[C@](O)(c4ccccc4)C(F)(F)C(F)(F)F)CC3)CC2)cc1Cl [Example 2-13, 2-chloro-N,N-dimethyl-4-[4-({1-[(2R)-3,3,4,4,4-pentafluoro-2-hydroxy-2-phenylbutanoyl]piperidin-4-yl}methyl)piperidin-1-yl]benzamide]",–,–,119,56,177,–,–
"CN(C)C(=O)c1ccc(N2CCC(CC3CCN(C(=O)[C@](O)(c4ccccc4)C(F)(F)C(F)(F)F)CC3)CC2)cc1Cl [Example 2-14, 2-chloro-N,N-dimethyl-4-[4-({1-[(2R)-3,3,4,4,4-pentafluoro-2-hydroxy-2-phenylbutanoyl]piperidin-4-yl}methyl)piperidin-1-yl]benzamide]",–,–,89,14,–,NO IP,–
"CN(C)C(=O)c1ccc(N2CCC(CC3CCN(C(=O)C(O)(c4ccc(Cl)cc4)C(F)(F)F)CC3)CC2)cc1Cl (centres unmarked) [Example 2-15, 2-chloro-4-[4-({1-[2-(4-chlorophenyl)-3,3,3-trifluoro-2-hydroxy-propanoyl]piperidin-4-yl}methyl)piperidin-1-yl]-N,N-dimethyl-benzamide]",26,0,–,–,–,NO IP,298
"CN(C)C(=O)c1ccc(N2CCC(CC3CCN(C(=O)C(O)(c4ccc(C(F)(F)F)cc4)C(F)(F)F)CC3)CC2)cc1Cl (centres unmarked) [Example 2-16, 2-chloro-N,N-dimethyl-4-{4-[(1-{3,3,3-trifluoro-2-hydroxy-2-[4-(trifluoromethyl)phenyl]propanoyl}piperidin-4-yl)methyl]piperidin-1-yl} benzamide]",15,0,–,–,–,NO IP,598
"CN(C)C(=O)c1ccc(N2CCC(CC3CCN(C(=O)C(O)(c4cccc(Cl)c4)C(F)(F)F)CC3)CC2)cc1Cl (centres unmarked) [Example 2-17, 2-chloro-4-[4-({1-[2-(3-chlorophenyl)-3,3,3-trifluoro-2-hydroxy-propanoyl]piperidin-4-yl}methyl)piperidin-1-yl]-N,N-dimethyl-benzamide]",63,24,–,–,140,–,11
"CN(C)C(=O)c1ccc(N2CCC(CC3CCN(C(=O)C4(c5ccccc5)CCC4)CC3)CC2)cc1Cl [Example 2-18, 2-chloro-N,N-dimethyl-4-[4-({1-[(1-phenylcyclobutyl)carbonyl]piperidin-4-yl}methyl)piperidin-1-yl]benzamide]",46,6,–,–,–,NO IP,151
"CN(C)C(=O)c1ccc(N2CCC(OC3CCN(C(=O)C4(C(F)(F)F)CCCCC4)CC3)CC2)cc1Cl [Example 2-19, 2-chloro-N,N-dimethyl-4-{4-[(1-{[1-(trifluoromethyl)cyclohexyl]carbonyl}piperidin-4-yl)oxy]piperidin-1-yl}benzamide]",75,23,–,–,1810,–,206
"CO[C@](C(=O)N1CCC(OC2CCN(c3ccc(C(=O)N(C)C)c(Cl)c3)CC2)CC1)(c1ccccc1)C(F)(F)F [Example 2-20, 2-chloro-N,N-dimethyl-4-[4-({1-[(2S)-3,3,3-trifluoro-2-methoxy-2-phenylpropanoyl]piperidin-4-yl}oxy)piperidin-1-yl]benzamide]",81,4,–,–,–,NO IP,335
"CN(C)C(=O)c1ccc(N2CCC(OC3CCN(C(=O)[C@](O)(c4ccccc4)C(F)(F)F)CC3)CC2)cc1Cl [Example 2-21, 2-chloro-N,N-dimethyl-4-[4-({1-[(2R)-3,3,3-trifluoro-2-hydroxy-2-phenylpropanoyl]piperidin-4-yl}oxy)piperidin-1-yl]benzamide]",–,–,65,0,–,NO IP,–
"CN(C)C(=O)c1ccc(N2CCC(OC3CCN(C(=O)[C@](O)(c4ccccc4)C(F)(F)C(F)(F)F)CC3)CC2)cc1Cl [Example 2-22, 2-chloro-N,N-dimethyl-4-[4-({1-[(2R)-3,3,4,4,4-pentafluoro-2-hydroxy-2-phenylbutanoyl]piperidin-4-yl}oxy)piperidin-1-yl]benzamide]",131,51,–,–,900,–,21
"CN(C)C(=O)c1ccc(N2CCC(OC3CCN(C(=O)C(O)(c4ccc(Cl)cc4)C(F)(F)F)CC3)CC2)cc1Cl (centres unmarked) [Example 2-23, 2-chloro-4-[4-({1-[2-(4-chlorophenyl)-3,3,3-trifluoro-2-hydroxy-propanoyl]piperidin-4-yl}oxy)piperidin-1-yl]-N,N-dimethyl-benzamide]",51,0,–,–,–,NO IP,513
"CN(C)C(=O)c1ccc(N2CCC(OC3CCN(C(=O)C(O)(c4cccc(Cl)c4)C(F)(F)F)CC3)CC2)cc1Cl (centres unmarked) [Example 2-24, 2-chloro-4-[4-({1-[2-(3-chlorophenyl)-3,3,3-trifluoro-2-hydroxy-propanoyl]piperidin-4-yl}oxy)piperidin-1-yl]-N,N-dimethyl-benzamide]",99,37,–,–,465,–,14
"CN(C)C(=O)c1ccc(N2CCC(OC3CCN(C(=O)C(O)(c4cccc(C(F)(F)F)c4)C(F)(F)F)CC3)CC2)cc1Cl (centres unmarked) [Example 2-25, 2-chloro-N,N-dimethyl-4-{4-[(1-{3,3,3-trifluoro-2-hydroxy-2-[3-(trifluoromethyl)phenyl]propanoyl}piperidin-4-yl)oxy]piperidin-1-yl}benzamide]",89,26,–,–,695,–,28
"COc1cccc(C(O)(C(=O)N2CCC(OC3CCN(c4ccc(C(=O)N(C)C)c(Cl)c4)CC3)CC2)C(F)(F)F)c1 (centres unmarked) [Example 2-26, 2-chloro-N,N-dimethyl-4-[4-({1-[3,3,3-trifluoro-2-hydroxy-2-(3-methoxyphenyl)propanoyl]piperidin-4-yl}oxy)piperidin-1-yl]benzamide]",68,0,–,–,–,NO IP,23
"CN(C)C(=O)c1ccc(N2CCC(OC3CCN(C(=O)C4(c5ccccc5)CCC4)CC3)CC2)cc1Cl [Example 2-27, 2-chloro-N,N-dimethyl-4-[4-({1-[(1-phenyl-cyclobutyl)carbonyl]piperidin-4-yl}oxy)piperidin-1-yl]benzamide]",82,19,–,–,4620,–,371
"COc1cccc([C@@](O)(C(=O)N2CCC(OC3CCN(c4ccc(C(=O)N(C)C)c(Cl)c4)CC3)CC2)C(F)(F)F)c1 [Example 2-28, 2-chloro-N,N-dimethyl-4-[4-({1-[(2R)-3,3,3-trifluoro-2-hydroxy-2-(3-methoxyphenyl)propanoyl]piperidin-4-yl}oxy)piperidin-1-yl]benzamide]",87,28,–,–,1740,–,25
"CN(C)C(=O)c1ccc(N2CCC(OC3CCN(C(=O)C(F)(F)F)CC3)CC2)cc1Cl [Example 2-29, 2-chloro-N,N-dimethyl-4-(4-{[1-(trifluoro-acetyl)piperidin-4-yl]oxy}piperidin-1-yl)benzamide]",65,25,–,–,–,NO IP,3790
"CN(C)C(=O)c1ccc(N2CCC(CC3CCN(C(=O)C(O)(c4ccsc4)C(F)(F)F)CC3)CC2)cc1Cl (centres unmarked) [Example 2-30, 2-chloro-N,N-dimethyl-4-(4-{[1-(3,3,3-trifluoro-2-hydroxy-2-thiophen-3-ylpropanoyl)piperidin-4-yl]methyl}piperidin-1-yl)benzamide]",64,25,–,–,821,–,36
